These results are taken from patent US10807958B2, “1,4-bis(3-aminopropyl)piperazine derivative and its use” (INSERM (Institut National de la Sante et de la Recherche …, priority 2015, dated 2020).

The test system of assay [1] is endogenous Tau (MAPT) of wild-type C57/BL6 animals. As to the kind of experiment: 2D gel electrophoresis of endogenous brain Tau in treated wild-type animals. Conditions: wild-type mice, 1 month; for number of Tau isovariants stained with antibody S199: 5 isovariants in non-treated condition. It is filed as in vivo, mouse. The source says:
Wild-type C57BL/6J animals of 3 months were purchased at Charles Rivers Laboratories (France) and were allow to acclimate in the animal facility for at least one week before any treatment. Thy-Tau22 transgenic colonies (C57BL/6J genetic background) were obtained by crossing heterozygous Thy-Tau22 males with C57BL/6 WT females. […] In this model, a progressive development of NFT is observed in the hippocampus and amygdala, which parallels behavioral impairments (Schindowski et al., 2006). Furthermorever, in the hippocampus, hyper- and abnormally phosphorylated Tau species accumulate within the somato-dendritic area (Schindowski et al., 2006).
For animal treatment, animals were randomly distributed and the compound of Formula I was given in the drinking water at final concentration of 0.5 or 1 mg/kg. Drinking bottles were changed once per week, volume consumption was measured along the treatment period. Food consumption and body weight were assessed. In wild-type animals the pilot study of drug treatment was performed for one month to establish the innocuousness of the treatment with the compound of Formula I. This was based on the physiological, social and behavioural assessments. Thy-Tau22 males were treated for 4 months starting at 3 month old. All protocols were approved by the local ethics committee (n^∘342012, CEEA).
After behavioral assessment, blood was collected in 1.5 mL polypropylene tubes (Eppendorf, France), mice were sacrificed by cervical dislocation to avoid any modifications instrumental to anesthesia (Lefreche et al. 2012). Hippocampi and cortices were dissected and snap frozen in 1.5 mL tubes (Eppendorf). Tissue was homogenized in Tris-HCl buffer (10 mM pH 7.4) containing 320 mM sucrose, protease inhibitors (Complete mini EDTA-free, Roche) sonicated and spun at 12,000×g for 10 min at 4° C. The supernatant was recovered, protein concentration was achieved using the BCA Protein quantification assay kit (Pierce) according to the manufacturer instruction. The supernatant was further processed for biochemical analyses or kept at −80° C. For 1D or 2D gels, the same lysis buffer was used. Thus, equal amount protein in Tris buffer were added with a solution containing 7M urea, 2M thiourée with 2% SDS and sonicated at 60 Hz 30 pulses.
Two-dimensional gel electrophoresis was performed according to the recently published procedure (Fernandez-Gomez et al., 2014). Briefly, cells were rinsed once with PBS and lysed in UTS buffer (7M urea, 2M thiourea, 2% SDS) and sonicated at 60 Hz 30 pulses. Lysate was precipitated with methanol/chloroform. 50 μg of proteins were precipitate using the chloroform/methanol procedure and the pellet was dissolved in 2D buffer [urea 7M, thiourea 2M, 4% CHAPS, and 0.6% Pharmalytes 3-10 (G&E Healthcare)]. […] The strips were layered onto a 4-12% Bis-Tris Poly-acrylamide Gel XT™ Precast Criterion (BioRad) and run with a constant tension of 100V as described for 1D SDS-PAGE. The Western blot was performed as above described for 1D SDS-PAGE and Western-blotting.
To further determine the effect of the compound of Formula I on Tau metabolism, wild-type C57/BL6 animals were treated with 0.5 and 1 mg/Kg of the compound of Formula I for 1 month and endogenous MAPT expression was assessed by 2D gel electrophoresis. Tau protein isovariants consist of three series ranging from pI 10 to 6. The major and most basic isovariants correspond to the mouse Tau isoform comprising the sole exon 10 encoding sequence. The two other series of isoforms of molecular weight of 64 and 69 kDa are isovariants of Tau isoforms which, in addition to the exon 10, contain exon 2 or exon 2+3 encoding sequences, respectively.

Assay [2] concerns Neuroblastoma SKNSH-SY5Y cells expressing the human Tau isoform 412. Put plainly: 2D gel electrophoresis of Tau isovariants in treated cells. It is filed as cell-based. The note with it: 10 μM, vs control conditions, FIG. 2. The source says: Pan-Tau and phospho-dependent Tau antibodies included Tau-Nter (M19G, 1/10 000, Sergeant et al., 1999), Tau-Cter (1/10 000, Sergeant et al., 1999, Le Freche et al., 2012), Tau-1 (1/5000, Merck Millipore), S199P (directed against the phospho-serine 199, 1/4000, Sergeant et al., 1999), Tau-Phospho S396 (directed against the phosphor-serine 396, 1/10000, Lifetechnologies), Tau-Phospho 404 (1/10 000, Lifetechnologies), 422 (clone 2H9, a homemade monoclonal antibody developed against a phospho-peptide containing the phosphorylated serine 422 residue of Tau, numbering according to the longest human brain Tau-441 isoform), AT8 (1/1000, Thermo Scientific), AT270 (1/2000, Thermo Scientific), AT100 (1/1000, Thermo Scientific). Neuron specific enolase (1/10 000), β-actin (1/5000) and β-tubulin (1/10 000) were from Sigma-Aldrich.
Human neuroblastoma cell line SKNSH-SY5Y cells expressing the human Tau isoform 412 (with the exon 2 and 10 encoding sequences) (or SY5Y-Tau46) was as previously described in Bretteville et al., 2009. […]
The effect of the compound of Formula I on Tau phosphorylation was analyzed in vitro and in vivo. […]
Expression and total phosphorylation was assessed by 1D and 2D gel electrophoresis using phospho-dependent and pan-Tau antibodies (FIGS. 1 and 2). […]

SMILES strings stand for the structures.

`CC(C)CN(CCCN1CCN(CCCNc2c3c(nc4ccccc24)CCCC3)CC1)CC(C)C` [compound of Formula I, N-[3-(4-{3-[Bis(2-methylpropyl)amino]propyl}piperazin-1-yl)propyl]-1,2,3,4-tetrahydroacridin-9-amine]: the “number of Tau isovariants stained with antibody S199” value in assay [1] (0.5 mg/Kg) is 3 isovariants. The “low molecular weight Tau catabolic products (Tau-Cter antibody)” value in assay [1] (0.5 mg/Kg, brain 2D gel, FIG. 3) was “increased in number and intensity”. The “number of Tau isovariants stained with antibody S199” value in assay [1] (1 mg/Kg) stood at 2 isovariants. Besides, the “distribution of Tau isovariants (Tau-Cter antibody)” value in assay [1] (0.5 and 1 mg/Kg in drinking water, brain 2D gel, FIG. 3) was “did not significantly change”. In addition, the “surface of the spots stained with antibody S199” value in assay [1] (0.5 and 1 mg/Kg, 2D gel) is “reduced”. Also, the “overall 2D profile of the full-length Tau isoforms” value in assay [1] (after treatment 0.5 and 1 mg/Kg) is given as “preserved”. Besides, in assay [2], the “Tau isovariants at the neutral pI, N- and C-terminal directed pan-Tau antibodies” value is recorded as “reduction”; the “Tau isovariants at the neutral pI, Tau396 phospho-dependent antibody (S396)” value is “reduction”.
